Source: patent publication US10072017B2, “Compounds and methods for the treatment of cystic fibrosis” (Flatley Discovery Lab, LLC, priority 2015, dated 2018)

Target: T1, CFTR (Homo sapiens, UniProt P13569, DEL508-508)
T1 construct: Primary CF airway epithelial cells were obtained from the UNC Cystic Fibrosis Tissue Procurement and Cell Culture Core; host or cells: primary CF airway epithelial cells
Assay: Equivalent current assay in Primary CF airway epithelial cells (NAUC)
Type: cell-based
Details: 24 h, normalized to VX809 (3 μM) positive control; for Nauc @ 3 μM: 3 μM test compound; for Nauc @ 10 μM: 10 μM test compound
Procedure, shortened: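 Primary CF airway epithelia differentiated ≥4 weeks at air-liquid interface, treated basolaterally 24 h at 37 °C with test compounds in combination with VX809, 0.1% DMSO vehicle. Equivalent current recorded after 5 μM benzamil, 10 μM forskolin plus 1 μM VX770, then CFTR-172/bumetanide 20 μM; vehicle-subtracted AUC normalized to 3 μM VX809 (NAUC), median of n≥4, sigmoid fit for EC50.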

T1 sequence (P13569 with tags, fused parts or gaps DEL508-508): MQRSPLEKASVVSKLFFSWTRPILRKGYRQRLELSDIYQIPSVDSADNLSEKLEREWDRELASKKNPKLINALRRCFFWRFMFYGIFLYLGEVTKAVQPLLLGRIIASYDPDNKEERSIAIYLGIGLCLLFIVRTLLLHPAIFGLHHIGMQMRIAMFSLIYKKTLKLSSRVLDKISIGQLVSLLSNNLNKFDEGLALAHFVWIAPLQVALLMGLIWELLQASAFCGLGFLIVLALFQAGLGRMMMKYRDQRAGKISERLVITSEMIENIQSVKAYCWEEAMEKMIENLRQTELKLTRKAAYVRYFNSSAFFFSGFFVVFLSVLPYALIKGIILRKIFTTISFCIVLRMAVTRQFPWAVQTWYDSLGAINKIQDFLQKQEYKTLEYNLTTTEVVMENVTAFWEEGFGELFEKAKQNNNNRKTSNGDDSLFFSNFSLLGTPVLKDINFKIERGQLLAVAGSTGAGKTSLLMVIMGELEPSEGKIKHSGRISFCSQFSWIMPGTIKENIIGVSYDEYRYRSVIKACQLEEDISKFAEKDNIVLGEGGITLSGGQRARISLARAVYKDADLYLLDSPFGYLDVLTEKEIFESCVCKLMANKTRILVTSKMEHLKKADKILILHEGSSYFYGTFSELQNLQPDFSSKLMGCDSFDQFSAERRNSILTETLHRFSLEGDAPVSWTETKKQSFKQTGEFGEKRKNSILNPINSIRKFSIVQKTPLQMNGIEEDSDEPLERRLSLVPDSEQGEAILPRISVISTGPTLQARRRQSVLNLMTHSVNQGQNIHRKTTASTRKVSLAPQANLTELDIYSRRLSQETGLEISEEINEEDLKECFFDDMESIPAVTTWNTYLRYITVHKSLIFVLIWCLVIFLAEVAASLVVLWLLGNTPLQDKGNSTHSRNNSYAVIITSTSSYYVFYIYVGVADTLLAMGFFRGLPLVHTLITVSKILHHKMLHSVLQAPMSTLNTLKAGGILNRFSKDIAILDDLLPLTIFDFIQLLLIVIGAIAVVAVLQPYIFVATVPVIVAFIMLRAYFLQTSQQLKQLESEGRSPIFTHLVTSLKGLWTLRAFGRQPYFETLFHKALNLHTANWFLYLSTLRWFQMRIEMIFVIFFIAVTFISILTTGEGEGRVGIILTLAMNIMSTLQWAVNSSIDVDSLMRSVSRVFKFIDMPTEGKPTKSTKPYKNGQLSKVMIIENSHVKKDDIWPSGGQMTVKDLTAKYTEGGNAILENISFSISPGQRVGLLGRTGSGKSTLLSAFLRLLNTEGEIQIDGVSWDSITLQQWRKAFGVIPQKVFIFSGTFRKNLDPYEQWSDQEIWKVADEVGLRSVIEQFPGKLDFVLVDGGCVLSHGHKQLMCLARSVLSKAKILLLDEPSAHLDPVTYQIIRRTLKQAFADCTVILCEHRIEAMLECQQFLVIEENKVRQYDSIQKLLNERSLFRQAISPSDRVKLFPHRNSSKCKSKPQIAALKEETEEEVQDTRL

SMILES	Nauc @ 3 μM	Nauc @ 10 μM
O=C1C2C3CCCN3C3(C(=O)Nc4c(Cl)cc(Cl)cc43)C2C(=O)N1c1cc(Cl)cc(Cl)n1 (stereo not drawn) [Example 52]	++ (NAUC “++” refers to an observed NAUC 170-140% of positive control)	+++ (NAUC “+++” refers to an observed NAUC >170% of positive control)
O=C1C2C3CC(F)(F)CN3C3(C(=O)Nc4c(Cl)cc(Cl)cc43)C2C(=O)N1c1cc(Cl)cc(Cl)c1 (stereo not drawn) [Example 53]	++ (NAUC “++” refers to an observed NAUC 170-140% of positive control)	++ (NAUC “++” refers to an observed NAUC 170-140% of positive control)
C=C1CC2C3C(=O)N(c4cc(Cl)cc(Cl)c4)C(=O)C3C3(C(=O)Nc4c(Cl)cc(Cl)cc43)N2C1 (stereo not drawn) [Example 55]	+ (NAUC “+” refers to an observed NAUC <140% of positive control)	+++ (NAUC “+++” refers to an observed NAUC >170% of positive control)
O=C1C2C3C[C@H](Cl)CN3C3(C(=O)Nc4c(Cl)cc(Cl)cc43)C2C(=O)N1c1cc(Cl)cc(Cl)c1 (stereo partly drawn) [Example 57]	+++ (NAUC “+++” refers to an observed NAUC >170% of positive control)	+++ (NAUC “+++” refers to an observed NAUC >170% of positive control)
O=C1C2C3C[C@H](O)CN3C3(C(=O)Nc4c(Cl)cc(Cl)cc43)C2C(=O)N1c1cc(Cl)cc(Cl)n1 (stereo partly drawn) [Example 59]	+ (NAUC “+” refers to an observed NAUC <140% of positive control)	+++ (NAUC “+++” refers to an observed NAUC >170% of positive control)
N[C@@H]1CC2C3C(=O)N(c4cc(Cl)cc(Cl)c4)C(=O)C3C3(C(=O)Nc4c(Cl)cc(Cl)cc43)N2C1 (stereo partly drawn) [Example 60]	+ (NAUC “+” refers to an observed NAUC <140% of positive control)	++ (NAUC “++” refers to an observed NAUC 170-140% of positive control)
CC1CC2C3C(=O)N(c4cc(Cl)cc(Cl)c4)C(=O)C3C3(C(=O)Nc4c(Cl)cc(Cl)cc43)N2C1 (stereo not drawn) [Example 63]	+++ (NAUC “+++” refers to an observed NAUC >170% of positive control)	+++ (NAUC “+++” refers to an observed NAUC >170% of positive control)
[2H]C12C(=O)N(c3cc(Cl)cc(Cl)c3)C(=O)C1([2H])C1(C(=O)Nc3c(Cl)cc(Cl)cc31)N1C[C@@H](O)CC12 (stereo partly drawn) [Example 64]	+ (NAUC “+” refers to an observed NAUC <140% of positive control)	++ (NAUC “++” refers to an observed NAUC 170-140% of positive control)
O=C1C2C3C[C@H](Cl)CN3C3(C(=O)Nc4c(Cl)cc(Cl)cc43)C2C(=O)N1c1cc(Cl)cc(Cl)n1 (stereo partly drawn) [Example 65]	++ (NAUC “++” refers to an observed NAUC 170-140% of positive control)	+++ (NAUC “+++” refers to an observed NAUC >170% of positive control)
COC(=O)c1cccc(N2C(=O)C3C4CCCN4C4(C(=O)Nc5c(Cl)cc(Cl)cc54)C3C2=O)c1 (stereo not drawn) [Example 66]	++ (NAUC “++” refers to an observed NAUC 170-140% of positive control)	++ (NAUC “++” refers to an observed NAUC 170-140% of positive control)
N#C[C@H]1CC2C3C(=O)N(c4cc(Cl)cc(Cl)c4)C(=O)C3C3(C(=O)Nc4c(Cl)cc(Cl)cc43)N2C1 (stereo partly drawn) [Example 68]	+ (NAUC “+” refers to an observed NAUC <140% of positive control)	+++ (NAUC “+++” refers to an observed NAUC >170% of positive control)
CC(=O)O[C@H]1CC2C3C(=O)N(c4cc(Cl)cc(Cl)c4)C(=O)C3C3(C(=O)N(C(C)=O)c4c(Cl)cc(Cl)cc43)N2C1 (stereo partly drawn) [Example 69]	+++ (NAUC “+++” refers to an observed NAUC >170% of positive control)	+ (NAUC “+” refers to an observed NAUC <140% of positive control)
CC1CC2C3C(=O)N(c4cc(Cl)cc(Cl)c4)C(=O)C3C3(C(=O)Nc4c(Cl)cc(Cl)cc43)N2C1 (stereo not drawn) [Example 71]	+ (NAUC “+” refers to an observed NAUC <140% of positive control)	+++ (NAUC “+++” refers to an observed NAUC >170% of positive control)
COc1cc(Cl)cc(N2C(=O)C3C4C[C@H](O)CN4C4(C(=O)Nc5c(Cl)cc(Cl)cc54)C3C2=O)c1 (stereo partly drawn) [Example 74]	+++ (NAUC “+++” refers to an observed NAUC >170% of positive control)	+++ (NAUC “+++” refers to an observed NAUC >170% of positive control)
O=C1C2C3CCCN3C3(C(=O)Nc4c(Cl)cccc43)C2C(=O)N1c1cc(Cl)cc(Cl)c1 (stereo not drawn) [Example 75]	++ (NAUC “++” refers to an observed NAUC 170-140% of positive control)	+ (NAUC “+” refers to an observed NAUC <140% of positive control)
COc1cc(Cl)cc(N2C(=O)C3C4C[C@H](Cl)CN4C4(C(=O)Nc5c(Cl)cc(Cl)cc54)C3C2=O)c1 (stereo partly drawn) [Example 76]	+++ (NAUC “+++” refers to an observed NAUC >170% of positive control)	+++ (NAUC “+++” refers to an observed NAUC >170% of positive control)
COc1c(Cl)cc(N2C(=O)C3C4CCCN4C4(C(=O)Nc5c(Cl)cc(Cl)cc54)C3C2=O)cc1Cl (stereo not drawn) [Example 77]	+++ (NAUC “+++” refers to an observed NAUC >170% of positive control)	+++ (NAUC “+++” refers to an observed NAUC >170% of positive control)
COc1c(Cl)cc(N2C(=O)C3C4C[C@H](F)CN4C4(C(=O)Nc5c(Cl)cc(Cl)cc54)C3C2=O)cc1Cl (stereo partly drawn) [Example 78]	+++ (NAUC “+++” refers to an observed NAUC >170% of positive control)	+++ (NAUC “+++” refers to an observed NAUC >170% of positive control)
COc1c(Cl)cc(N2C(=O)C3C4C[C@H](Cl)CN4C4(C(=O)Nc5c(Cl)cc(Cl)cc54)C3C2=O)cc1Cl (stereo partly drawn) [Example 79]	+++ (NAUC “+++” refers to an observed NAUC >170% of positive control)	+++ (NAUC “+++” refers to an observed NAUC >170% of positive control)
O=C1C2C3C[C@H](F)CN3C3(C(=O)Nc4c(Cl)cc(Cl)cc43)C2C(=O)N1c1cc(O)cc(Cl)c1 (stereo partly drawn) [Example 80]	++ (NAUC “++” refers to an observed NAUC 170-140% of positive control)	++ (NAUC “++” refers to an observed NAUC 170-140% of positive control)
O=C1C2C3C[C@H](Cl)CN3C3(C(=O)Nc4c(Cl)cc(Cl)cc43)C2C(=O)N1c1cc(O)cc(Cl)c1 (stereo partly drawn) [Example 81]	+ (NAUC “+” refers to an observed NAUC <140% of positive control)	++ (NAUC “++” refers to an observed NAUC 170-140% of positive control)
